One molecule from patent US10993957B2 (NuCana plc, priority 2011, dated 2021) can be followed below.

Data set [1] concerns Cem/TK^−. The experiment in a line: Cytostatic assay, thymidine kinase-deficient CEM/TK^− cells. The class given is cell-based, human. The following applies: Homo sapiens, CEM-TK(-).
In data set [2] the test system is HeLa/TK^−. As to the kind of experiment: Cytostatic assay, HeLa/TK^− cells. It counts as cell-based. The following applies: Homo sapiens, HeLa. An excerpt:
The cell lines employed were L1210/0 (a leukemia cell line), FM3A/0 (a breast cancer cell line), Cem/0 (an acute lymphoblastic leukemia cell line) and HeLa (a cervical cell line).

Data set [3] addresses T1, human TP (Homo sapiens, UniProt P19971).
T1 sequence (P19971 11-482): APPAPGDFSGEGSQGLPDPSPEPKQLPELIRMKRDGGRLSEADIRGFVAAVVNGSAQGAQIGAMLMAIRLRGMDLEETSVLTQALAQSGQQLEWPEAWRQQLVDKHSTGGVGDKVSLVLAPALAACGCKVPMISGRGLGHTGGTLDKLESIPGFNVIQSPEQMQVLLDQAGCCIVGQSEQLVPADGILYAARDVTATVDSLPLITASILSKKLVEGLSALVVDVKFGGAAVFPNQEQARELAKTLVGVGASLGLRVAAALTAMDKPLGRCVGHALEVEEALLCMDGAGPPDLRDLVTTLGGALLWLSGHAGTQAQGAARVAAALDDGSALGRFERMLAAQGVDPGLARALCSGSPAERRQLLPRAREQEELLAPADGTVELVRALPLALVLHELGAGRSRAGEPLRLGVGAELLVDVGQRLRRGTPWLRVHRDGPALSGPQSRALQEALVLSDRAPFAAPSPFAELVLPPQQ
As to the kind of experiment: Phosphorolysis by human TP, HPLC. Particulars: 100 μM compound, room temperature, 0-40 min. The protocol: (§1) Reaction mixtures containing 100 μM test compound and recombinant TP or UP (human TP: 8.6 ng/μL; E. coli TP: 3.0 ng/μL; human UP: 4 ng/mL) in a total volume of 500 μL reaction buffer (10 mM TrisHCl; 300 μM NaCl; 1 mM EDTA; 2 mM KH2PO4/K2HPO4) were incubated at room temperature. At different time points (i.e. 0, 20, 40 min) 100 μL aliquots of the reaction mixtures were withdrawn and heated at 95° C. for 3 min to inactivate the enzyme. […] The separation of Urd from uracil was performed by a linear gradient from 100% separation buffer (see above) to 60% separation buffer+40% acetonitrile (3 min 100% separation buffer; 6 min linear gradient of 100% separation buffer to 60% separation buffer+40% acetonitrile; 6 min 60% separation buffer+40% acetonitrile, followed by equilibration at 100% separation buffer).

Data set [4] deals with human UP (Homo sapiens, UniProt Q16831). As to the kind of experiment: Phosphorolysis by human UP, HPLC. The following applies: 100 μM compound, room temperature, 0-40 min. The protocol:
as §1

Data set [5] in a line: Stability in human serum by in situ 31P NMR. It counts as in vitro ADME. The following applies: 37° C., after 12 hours and 30 minutes. The procedure: The stability of the prodrug CPF-373 in the presence of human serum was studied using in situ ^31P NMR (202 MHz). The ProTide CPF-373 (1) (5.0 mg) was dissolved in DMSO (0.05 mL) and D2O (0.15 mL). Then the sample was transferred into an NMR tube, which was inserted in the NMR chamber at 37° C. (with enough solvent to obtain a control NMR reading of the blank). Then 0.3 ml human serum was quickly added to the sample in the NMR tube. NMR experiments were programmed to record data every 15 minutes for 12 hours and 30 minutes. Because of excess noise and poor shimming profiles (most likely due to the biological media and concentration), individual spectra were further processed. After normal Fourier transform processing, each spectrum was deconvoluted (Lorentz-Gauss deconvolution) to reveal solely the frequency and area of spectral peaks without the baseline. Data recorded were processed and analysed with the Bruker Topspin 2.1 program.
Chemical stability studies on the prodrug CPF-373 (1) have been performed by exposing the compound to human serum and to aqueous buffers (pH 1.0 and 8.0) using in situ ^31P NMR. […]
The stability of compound CPF 386 in the presence of human serum was investigated using in situ ^31P NMR. A control ^31P NMR data of compound CPF 386 in DMSO and D2O were recorded. […] The ^31P NMR data were recorded every 15 minutes over 14 h. […]

A short description of data set [6]: Stability in buffer at pH 1 by 31P NMR. It counts as physicochemical. Particulars: 14 hours. The procedure:
The stability of the prodrug CPF-373 towards hydrolysis at pH=1 was studied using in situ ^31P NMR (202 MHz). The ProTide CPF-373 (1) (2.6 mg) was dissolved in MeOD (0.1 mL) after which 0.5 mL buffer (pH=1) (prepared from equal parts of 0.2 M HCl and 0.2 M KCl) was added. Then the sample was transferred into an NMR tube, and a ^31P NMR experiment was performed at 37° C. recording the data every 12 minutes for 14 hours. Data were processed and analysed with the Bruker Topspin 2.1 program.
(§2) A chemical hydrolysis was evaluated under experimental conditions at pH 1 and pH 8 and monitored by ^31P NMR. During the assay (14 h) under acidic conditions (pH 1) only two peaks representing the two diastereoisomers were recorded.

A short description of data set [7]: Stability in buffer at pH 8 by 31P NMR. It counts as physicochemical. Particulars: 14 hours. The protocol: The stability of the prodrug CPF-373 towards hydrolysis at pH=8 was studied using in situ ^31P NMR (202 MHz). The ProTide CPF-373 (1) (4.9 mg) was dissolved in MeOD (0.1 mL) after which 0.5 mL buffer (pH=8) (prepared from a solution of 0.1 M Na2HPO4, which was adjusted by 0.1 M HCl) was added. Then the sample was transferred into an NMR tube, and a ^31P NMR experiment was performed at 37° C. recording the data every 12 minutes for 14 hours. Data were processed and analysed with the Bruker Topspin 2.1 program.
as §2

The structures appear in SMILES notation. Where two headings read alike, the source gives them in different places.

Chain of human UP (Q16831 whole entry): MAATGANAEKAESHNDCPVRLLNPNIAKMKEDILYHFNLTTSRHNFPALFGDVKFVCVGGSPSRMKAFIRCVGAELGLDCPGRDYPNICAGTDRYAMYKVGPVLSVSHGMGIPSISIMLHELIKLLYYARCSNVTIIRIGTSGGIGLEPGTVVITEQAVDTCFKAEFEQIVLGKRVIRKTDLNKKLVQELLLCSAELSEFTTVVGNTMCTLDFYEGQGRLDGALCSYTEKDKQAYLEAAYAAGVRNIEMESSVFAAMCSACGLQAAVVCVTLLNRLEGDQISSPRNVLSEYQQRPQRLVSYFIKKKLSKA

As to `C[C@H](NP(=O)(OC[C@H]1O[C@@H](n2cc(F)c(=O)[nH]c2=O)CC1O)Oc1cccc2ccccc12)C(=O)OCc1ccccc1` (stereo partly drawn) [CPF 373, 5-Fluoro-2′deoxyuridine-5′-O-[1-naphthyl (benzoxy-L-alaninyl)] phosphate], the IC50 was determined as 320 nM in data set [1] (Table 3, read-out: IC50 CEM/TK−); 310 ± 60 nM in data set [1] (Table 6, read-out: IC50 Cem/TK^−); 2500 ± 1300 nM in data set [2] (Table 6, read-out: IC50 HeLa/TK^−). In addition, the CC50 in data set [2] (Table 1, read-out: CC50 HeLa/TK^−) came out at 2500 ± 1300 nM. In data set [3], the “Phosphorolysis by human TP” value was “fully stable”. For the same molecule, in data set [4], the “Phosphorolysis by human UP” value is “not affected”. Also, the “unchanged compound after incubation in human serum” value in data set [5] was found to be 73%. In addition, the “Stability towards hydrolysis at pH 1” value in data set [6] is “full stability”. In addition, in data set [7], the “Stability towards hydrolysis at pH 8” value is listed as “full stability”.
